From US8426596B2, “Process of producing bleach boosters” (BASF Aktiengesellschaft, priority 2005, dated 2013) come the findings set out here.

Structures are written as SMILES. Structures can show the parent of a compound that is named as a salt.

What all share (assay type): biochemical
The subject of test [1] is Termamyl, Duramyl and Natalase (alpha amylases). As to the kind of experiment: Organic Catalyst/Enzyme Compatibility Test, average over the three amylases. The note with it: ECV=(ECVter+ECVdur+ECVnat)/3; peracetic acid 5.0 ppm; organic catalyst 0.5 ppm. On the procedure:
(§1) Organic Catalyst/Enzyme Compatibility Test
(§2) The test described below uses an alpha amylase activity assay to measure the impact of organic catalysts on the enzyme.
(§3) Equipment. UV/Vis spectrophotometer capable of measuring @ 415 nm, heated magnetic stirrer capable of 40° C., 5 ml Luer lock syringe and filters (Acrodisc 0.45 ? μm), pH meter, and balance (4-place analytical).
(§4) Reagents. Merck Amylase Kit (Merck Eurolab, Cat. No. 1.19718.0001); Trizma Base (Sigma Cat # T-1503, or equivalent); Calcium Chloride Dihydrate (Sigma Cat # C-5080, or equivalent); Sodium Thiosulfate Pentahydrate (Sigma Cat # S-6672 or equivalent); Hydrochloric Acid (VWR Cat # JT9535-0, or equivalent); Hardness solution (CTC Group, 3.00 gr/cc or equivalent); Sodium Percarbonate; Peracetic Acid (Aldrich, Cat. #26933-6 or equivalent); Amylase enzymes: Termamyl, Natalase, and Duramyl (Novozymes, Denmark); Granular detergent matrix containing no enzyme, organic catalyst or bleaching agents.
(§5) 1.) Solution Preparation: Prepare the Following:
(§6) • a.) TRIS Assay Buffer. Prepare 1 liter of 0.1M TRIS buffer, 0.5% sodium thiosulphate (W/V), 0.11% calcium chloride (w/v) at pH 8.3. • b.) Blank Detergent Solution. Prepare one liter of 0.5% enzyme and bleach free granular detergent product in deionized water (W/V) that is 250 ppm H2O2 (0.77 gm percarbonate) and 10 gpg hardness (880 UI of hardness). • c.) Termamyl, Duramyl and Natalase Stock. Make 100 ml solutions each of a 0.1633 mg active Termamyl per ml TRIS Buffer, a 0.1159 mg active Natalase per ml TRIS Buffer, and a 0.1596 mg active Duramyl per ml TRIS Buffer. • d.) Organic catalyst stocks. Make a 500 ppm in methanol solution of μm. • e.) Peracetic acid stock. Make a 3955 ppm peracetic acid solution in deionized water. • f.) Amylase reagent. Follow Merck kit instructions for preparing flacons (containers) 1 and 2 using flacon 3 and subsequent mixing of flacons 1 and 2 to produce the final reagent used in the amylase activity analysis. 2.) Sample Analysis • a.) Analysis of sample with enzyme only: Add 100 ml of blank detergent solution to a 150 ml beaker. Place beaker on heated stir plate and bring temperature to 40° C. with stirring. Add Y μl of enzyme stock to the beaker where Y=612 μL for Duramyl, 306 μl for Termamyl, or 918 μl for Natalase. Spike only enzyme of interest. Stir sample for 1 minute. Start timer. At 7 minutes 45 seconds, pull a sample and filter it using a 0.45 μm syringe filter (5 ml syringe). Mix 6 μl of filtered sample with 250 μL of amylase reagent in a cuvette and place the cuvette in a UV/VIS spectrophotometer and monitor change in absorbance at 415 nm. Determine length of time (tE) to the nearest second required to obtain an absorbance reading of 1.0 for each enzyme. Use each enzyme's tE in Steps 2.)b.) and 2.)c.) below. • b.) Analysis of sample with enzyme and peracetic acid only. Follow Step 2.)a.) except after enzyme addition, allow solution to stir for 1 minute then add 127 μl of peracetic acid stock and start timer. Pull sample at 7 minutes 45 seconds as in Step 2.)a.). Once sample and reagent are mixed, record the absorbance at tE for the respective enzyme. Designate such absorbance Ab. • c.) Analysis of sample with enzyme, peracetic acid, and organic catalyst. […] Once sample and reagent are mixed, record the absorbance at tE for the respective enzyme. Designate such absorbance A, 3.) Calculate Enzyme Compatibility Value (ECV) • a.) Calculate the ECV for each specific enzyme: termamyl (ECVter), duramyl (ECVdur) and natalase (ECVnat). […]

Test [2] has as its target T1, Termamyl (alpha amylase) (Bacillus licheniformis, UniProt P06278).
T1 construct: purchased Novozymes, Denmark
As to the kind of experiment: Organic Catalyst/Enzyme Compatibility Test (alpha amylase activity assay), Termamyl. The note with it: (Ac/Ab)x100; peracetic acid 5.0 ppm; organic catalyst 0.5 ppm; 40° C.; sample at 7 min 45 s. Here is the method:
as §1, §2, §3, §4, §5, §6

In test [3] the test system is Natalase (alpha amylase). As to the kind of experiment: Organic Catalyst/Enzyme Compatibility Test (alpha amylase activity assay), Natalase. Conditions: (Ac/Ab)x100; peracetic acid 5.0 ppm; organic catalyst 0.5 ppm; 40° C.; sample at 7 min 45 s. On the procedure: as §1, §2, §3, §4, §5, §6
Test [4] concerns Duramyl (alpha amylase). As to the kind of experiment: Organic Catalyst/Enzyme Compatibility Test (alpha amylase activity assay), Duramyl. The note with it: (Ac/Ab)x100; peracetic acid 5.0 ppm; organic catalyst 0.5 ppm; 40° C.; sample at 7 min 45 s. Here is the method: as §1, §2, §3, §4, §5, §6

T1 sequence (P06278 30-512): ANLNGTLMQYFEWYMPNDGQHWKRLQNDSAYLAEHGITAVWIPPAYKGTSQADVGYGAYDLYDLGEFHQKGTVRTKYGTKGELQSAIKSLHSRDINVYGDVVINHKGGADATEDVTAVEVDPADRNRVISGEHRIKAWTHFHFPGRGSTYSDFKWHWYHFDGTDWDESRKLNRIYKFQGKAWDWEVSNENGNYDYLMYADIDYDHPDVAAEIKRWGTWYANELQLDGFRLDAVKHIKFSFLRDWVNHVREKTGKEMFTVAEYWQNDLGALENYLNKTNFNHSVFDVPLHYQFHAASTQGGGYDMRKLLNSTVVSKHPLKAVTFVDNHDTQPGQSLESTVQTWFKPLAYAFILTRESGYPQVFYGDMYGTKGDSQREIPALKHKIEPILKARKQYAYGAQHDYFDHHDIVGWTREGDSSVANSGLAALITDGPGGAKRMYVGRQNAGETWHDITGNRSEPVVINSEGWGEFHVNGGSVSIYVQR

Consider `Cc1ccc(CC2(Cc3ccc(C)cc3)C[N+](CCCS(=O)(=O)[O-])=Cc3ccccc32)cc1` [Entry 5, 3,4-dihydro-4,4-di(4-methylphenylmethyl)-2-(3-sulfopropyl)-isoquinolinium, internal salt], for which the “Enzyme Compatibility Value ECV” value in test [1] was found to be 100. Further, in test [2], the “Enzyme Compatibility Value ECVter” value is reported as 103. In addition, the “Enzyme Compatibility Value ECVnat” value in test [3] amounted to 99. For the same compound, the “Enzyme Compatibility Value ECVdur” value in test [4] turned out to be 99.

For the compound `CCCCC(CC)COCC(C[N+]1=Cc2ccccc2CC1)OS(=O)(=O)[O-]` (centres unmarked) [Entry 2, Sulfuric acid mono-[2-(3,4-dihydro-isoquinolin-2-yl)-1-(2-ethyl-hexyloxymethyl)-ethyl] ester, internal salt, reference compound], the “Enzyme Compatibility Value ECV” value in test [1] is 67. In test [2], the “Enzyme Compatibility Value ECVter” value is 54. In addition, the “Enzyme Compatibility Value ECVnat” value in test [3] is given as 57. In addition, in test [4], the “Enzyme Compatibility Value ECVdur” value is reported as 90.

For the compound `CC(C)(C)OCC(C[N+]1=Cc2ccccc2CC1)OS(=O)(=O)[O-]` (centres unmarked) [Entry 1, Sulfuric acid mono-[2-(3,4-dihydro-isoquinolin-2-yl)-1-((1,1-di-methylethoxy)methyl)ethyl] ester, internal salt, reference compound], the “Enzyme Compatibility Value ECV” value in test [1] came out at 65. The “Enzyme Compatibility Value ECVter” value in test [2] is reported as 51. Further, the “Enzyme Compatibility Value ECVnat” value in test [3] was 58. Also, the “Enzyme Compatibility Value ECVdur” value in test [4] came out at 86.

For `O=S(=O)([O-])OCC[N+]1=Cc2ccccc2C(Cc2ccccc2)(Cc2ccccc2)C1` [Entry 3, 3,4-dihydro-4,4-di(phenylmethyl)-2-[2′-(sulfooxy)ethyl]-isoquinolinium, internal salt], the “Enzyme Compatibility Value ECV” value in test [1] was 101. Also, the “Enzyme Compatibility Value ECVter” value in test [2] was 101. Moreover, in test [3], the “Enzyme Compatibility Value ECVnat” value is listed as 103. Further, the “Enzyme Compatibility Value ECVdur” value in test [4] is on record as 100.

As for `O=S(=O)([O-])CCC[N+]1=Cc2ccccc2C(Cc2ccccc2)(Cc2ccccc2)C1` [Entry 4, 3,4-dihydro-4,4-dibenzyl-2-(3-sulfopropyl)isoquinolinium, Internal salt], the “Enzyme Compatibility Value ECV” value in test [1] came to 102. Moreover, in test [2], the “Enzyme Compatibility Value ECVter” value stood at 102. Further, the “Enzyme Compatibility Value ECVnat” value in test [3] turned out to be 104. In test [4], the “Enzyme Compatibility Value ECVdur” value amounted to 99.
